Assays:
Italian ryegrass [1] = experiment: Test A preemergence; format: in vivo, Lolium multiflorum
Method in brief: (§1)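 Scoring: eye-based comparison with untreated controls, 0 for no effect through 100 for complete control, at about day 10. Treatments: directed soil spray preemergence; foliar spray postemergence on 2–10 cm plants at the one- to two-leaf stage. Medium: loam soil with sand.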

giant foxtail [2] = experiment: Test A postemergence; format: in vivo, Setaria faberii
Method in brief: as §1

blackgrass = experiment: Test A postemergence; format: in vivo, Alopecurus myosuroides
Method in brief: as §1

corn = experiment: Test A postemergence; format: in vivo, Zea mays
Method in brief: as §1

barnyardgrass [3] = experiment: Test A preemergence; format: in vivo, Echinochloa crus-galli
Method in brief: as §1

wheat = experiment: Test A postemergence; format: in vivo, Triticum aestivum
Method in brief: as §1

pigweed [4] = experiment: Test A postemergence; format: in vivo, Amaranthus retroflexus
Method in brief: as §1

ragweed [5] = experiment: Test A preemergence; format: in vivo, Ambrosia elatior
Method in brief: as §1

giant foxtail [6] = experiment: Test A preemergence; format: in vivo, Setaria faberii
Method in brief: as §1

ragweed [7] = experiment: Test A postemergence; format: in vivo, Ambrosia elatior
Method in brief: as §1

pigweed [8] = experiment: Test A preemergence; format: in vivo, Amaranthus retroflexus
Method in brief: as §1

kochia [9] = experiment: Test A preemergence; format: in vivo, Kochia scoparia
Method in brief: as §1

barnyardgrass [10] = experiment: Test B flooded paddy test; format: in vivo, Echinochloa crus-galli; conditions: Flood, 250 g ai/ha; 0 to 100 scale where 0 is no effect and 100 is complete control
Method in brief: (§2)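 Plants were grown to the 2-leaf stage, then pots were flooded to 3 cm above the soil and compounds were applied directly into the paddy water. That depth was held throughout, and after 13 to 15 days in the greenhouse injury was rated visually against controls on a 0–100 scale (0 no effect, 100 complete control).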

sedge, umbrella = experiment: Test B flooded paddy test; format: in vivo, Cyperus difformis; conditions: Flood, 250 g ai/ha; 0 to 100 scale where 0 is no effect and 100 is complete control
Method in brief: as §2

rice = experiment: Test B flooded paddy test; format: in vivo, Oryza sativa; conditions: Flood, 250 g ai/ha; 0 to 100 scale where 0 is no effect and 100 is complete control
Method in brief: as §2

Italian ryegrass [11] = experiment: Test A postemergence; format: in vivo, Lolium multiflorum
Method in brief: as §1

galium = experiment: Test A postemergence; format: in vivo, Galium aparine
Method in brief: as §1

kochia [12] = experiment: Test A postemergence; format: in vivo, Kochia scoparia
Method in brief: as §1

Heteranthera limosa = experiment: Test B flooded paddy test; format: in vivo; conditions: Flood, 250 g ai/ha; 0 to 100 scale where 0 is no effect and 100 is complete control
Method in brief: as §2

barnyardgrass [13] = experiment: Test A postemergence; format: in vivo, Echinochloa crus-galli
Method in brief: as §1

[14] = 125 g ai/ha, 0 to 100 scale where 0 is no effect and 100 is complete control
[15] = 31 g ai/ha, 0 to 100 scale, 0 no effect, 100 complete control
[16] = 31 g ai/ha, 0 to 100 scale where 0 is no effect and 100 is complete control, visual, approximately 10 days
[17] = 125 g ai/ha, 0 to 100 scale, 0 no effect, 100 complete control
[18] = 500 g ai/ha, 0 to 100 scale where 0 is no effect and 100 is complete control

CC(C)Cc1cn(-c2c(F)cccc2Oc2ncc(Cl)cn2)nn1 [Compound 107]
Ryegrass, Italian plant response rating (0 to 100 scale) (Italian ryegrass [1]; 31 g ai/ha): 0
Plant response rating, Ryegrass, Italian (Italian ryegrass [1]; [14]): 0
Plant response rating, Foxtail, Giant (giant foxtail [2]; [15]): 20
Plant response rating, Foxtail, Giant (giant foxtail [2]; [14]): 70
Plant response rating, Blackgrass (blackgrass; [15]): 10
Plant response rating, Blackgrass (blackgrass; [14]): 50
Plant response rating, Corn (corn; [15]): 0
Plant response rating, Corn (corn; [14]): 20
Barnyardgrass plant response rating (0 to 100 scale) (barnyardgrass [3]; 31 g ai/ha): 10
Plant response rating, Barnyardgrass (barnyardgrass [3]; [14]): 60
Plant response rating, Wheat (wheat; [15]): 10
Plant response rating, Pigweed (pigweed [4]; [15]): 40
Ragweed plant response rating (0 to 100 scale) (ragweed [5]; 31 g ai/ha): 0
Plant response rating, Ragweed (ragweed [5]; [14]): 0
Foxtail, Giant plant response rating (0 to 100 scale) (giant foxtail [6]; 31 g ai/ha): 30
Plant response rating, Foxtail, Giant (giant foxtail [6]; [14]): 80
Plant response rating, Ragweed (ragweed [7]; [15]): 30
Pigweed plant response rating (0 to 100 scale) (pigweed [8]; 31 g ai/ha): 0
Plant response rating, Pigweed (pigweed [8]; [14]): 50
Kochia plant response rating (0 to 100 scale) (kochia [9]; 31 g ai/ha): 0
Plant response rating, Kochia (kochia [9]; [14]): 0
Plant response rating, Barnyardgrass (barnyardgrass [10]): 30
Plant response rating, Sedge, Umbrella (sedge, umbrella): 70
Plant response rating, Rice (rice): 0
Plant response rating, Ryegrass, Italian (Italian ryegrass [11]; [15]): 0
Plant response rating, Galium (galium; [15]): 30
Plant response rating, Galium (galium; [14]): 80
Plant response rating, Kochia (kochia [12]; [15]): 0
Plant response rating, Kochia (kochia [12]; [14]): 20
Plant response rating, Ducksalad (Heteranthera limosa): 40
Plant response rating, Barnyardgrass (barnyardgrass [13]; [15]): 0
Plant response rating, Barnyardgrass (barnyardgrass [13]; [14]): 40

Fc1cnc(Oc2cccc(Cl)c2-n2cc(OCC(F)(F)F)cn2)nc1 [Compound 109]
Ryegrass, Italian plant response rating (0 to 100 scale) (Italian ryegrass [1]; 31 g ai/ha): 0
Plant response rating, Ryegrass, Italian (Italian ryegrass [1]; [14]): 0
Plant response rating, Foxtail, Giant (giant foxtail [2]; [15]): 10
Plant response rating, Foxtail, Giant (giant foxtail [2]; [14]): 70
Plant response rating, Blackgrass (blackgrass; [15]): 20
Plant response rating, Blackgrass (blackgrass; [14]): 70
Plant response rating, Corn (corn; [15]): 10
Plant response rating, Corn (corn; [14]): 40
Barnyardgrass plant response rating (0 to 100 scale) (barnyardgrass [3]; 31 g ai/ha): 20
Plant response rating, Barnyardgrass (barnyardgrass [3]; [14]): 60
Plant response rating, Wheat (wheat; [15]): 0
Plant response rating, Pigweed (pigweed [4]; [15]): 70
Ragweed plant response rating (0 to 100 scale) (ragweed [5]; 31 g ai/ha): 0
Plant response rating, Ragweed (ragweed [5]; [14]): 10
Foxtail, Giant plant response rating (0 to 100 scale) (giant foxtail [6]; 31 g ai/ha): 70
Plant response rating, Foxtail, Giant (giant foxtail [6]; [14]): 90
Plant response rating, Ragweed (ragweed [7]; [15]): 10
Pigweed plant response rating (0 to 100 scale) (pigweed [8]; 31 g ai/ha): 100
Plant response rating, Pigweed (pigweed [8]; [14]): 100
Kochia plant response rating (0 to 100 scale) (kochia [9]; 31 g ai/ha): 20
Plant response rating, Kochia (kochia [9]; [14]): 60
Plant response rating, Barnyardgrass (barnyardgrass [10]): 0
Plant response rating, Sedge, Umbrella (sedge, umbrella): 85
Plant response rating, Rice (rice): 0
Plant response rating, Ryegrass, Italian (Italian ryegrass [11]; [15]): 0
Plant response rating, Galium (galium; [15]): 50
Plant response rating, Galium (galium; [14]): 90
Plant response rating, Kochia (kochia [12]; [15]): 40
Plant response rating, Kochia (kochia [12]; [14]): 60
Plant response rating, Ducksalad (Heteranthera limosa): 80
Plant response rating, Barnyardgrass (barnyardgrass [13]; [15]): 10
Plant response rating, Barnyardgrass (barnyardgrass [13]; [14]): 60

CC(C)Oc1cnn(-c2c(Br)cccc2Oc2ncc(F)cn2)c1 [Compound 156]
Plant response rating, Ryegrass, Italian (Italian ryegrass [1]; [16]): 0
Plant response rating, Ryegrass, Italian (Italian ryegrass [1]; [14]): 0
Plant response rating, Foxtail, Giant (giant foxtail [2]; [15]): 0
Foxtail, Giant plant response rating (giant foxtail [2]; [14]): 10
Plant response rating, Blackgrass (blackgrass; [15]): 0
Blackgrass plant response rating (blackgrass; [14]): 20
Plant response rating, Corn (corn; [15]): 0
Corn plant response rating (corn; [14]): 10
Plant response rating, Barnyardgrass (barnyardgrass [3]; [16]): 0
Plant response rating, Barnyardgrass (barnyardgrass [3]; [14]): 30
Plant response rating, Wheat (wheat; [15]): 0
Wheat plant response rating (wheat; [14]): 0
Plant response rating, Pigweed (pigweed [4]; [15]): 10
Pigweed plant response rating (pigweed [4]; [14]): 20
Plant response rating, Ragweed (ragweed [5]; [16]): 0
Plant response rating, Ragweed (ragweed [5]; [14]): 0
Plant response rating, Foxtail, Giant (giant foxtail [6]; [16]): 0
Plant response rating, Foxtail, Giant (giant foxtail [6]; [14]): 70
Plant response rating, Ragweed (ragweed [7]; [15]): 0
Ragweed plant response rating (ragweed [7]; [14]): 40
Plant response rating, Pigweed (pigweed [8]; [16]): 0
Plant response rating, Pigweed (pigweed [8]; [14]): 0
Plant response rating, Kochia (kochia [9]; [16]): 0
Plant response rating, Kochia (kochia [9]; [14]): 10
Plant response rating, Barnyardgrass (barnyardgrass [10]): 0
Plant response rating, Sedge, Umbrella (sedge, umbrella): 0
Plant response rating, Rice (rice): 0
Plant response rating, Ryegrass, Italian (Italian ryegrass [11]; [15]): 0
Ryegrass, Italian plant response rating (Italian ryegrass [11]; [14]): 0
Plant response rating, Galium (galium; [15]): 20
Galium plant response rating (galium; [14]): 30
Plant response rating, Kochia (kochia [12]; [15]): 0
Kochia plant response rating (kochia [12]; [14]): 40
Plant response rating, Ducksalad (Heteranthera limosa): 0
Plant response rating, Barnyardgrass (barnyardgrass [13]; [15]): 0
Barnyardgrass plant response rating (barnyardgrass [13]; [14]): 10

Fc1cccc(Oc2ncc(Cl)cn2)c1-n1cc(-c2ccsc2)nn1 [Compound 277]
Plant response rating, Ryegrass, Italian (Italian ryegrass [1]; [16]): 0
Ryegrass, Italian plant response rating (0 to 100 scale) (Italian ryegrass [1]; 125 g ai/ha): 0
Plant response rating, Foxtail, Giant (giant foxtail [2]; [15]): 40
Plant response rating, Foxtail, Giant (giant foxtail [2]; [17]): 70
Plant response rating, Blackgrass (blackgrass; [15]): 30
Plant response rating, Blackgrass (blackgrass; [17]): 50
Plant response rating, Corn (corn; [15]): 0
Plant response rating, Corn (corn; [17]): 20
Plant response rating, Barnyardgrass (barnyardgrass [3]; [16]): 0
Barnyardgrass plant response rating (0 to 100 scale, 0 is no effect, 100 is complete control) (barnyardgrass [3]; 125 g ai/ha): 0
Plant response rating, Wheat (wheat; [15]): 0
Plant response rating, Wheat (wheat; [17]): 0
Plant response rating, Pigweed (pigweed [4]; [15]): 60
Plant response rating, Pigweed (pigweed [4]; [17]): 70
Plant response rating, Ragweed (ragweed [5]; [16]): 0
Ragweed plant response rating (0 to 100 scale) (ragweed [5]; 125 g ai/ha): 0
Plant response rating, Foxtail, Giant (giant foxtail [6]; [16]): 30
Foxtail, Giant plant response rating (0 to 100 scale) (giant foxtail [6]; 125 g ai/ha): 70
Plant response rating, Ragweed (ragweed [7]; [15]): 50
Plant response rating, Ragweed (ragweed [7]; [17]): 60
Plant response rating, Pigweed (pigweed [8]; [16]): 30
Pigweed plant response rating (0 to 100 scale) (pigweed [8]; 125 g ai/ha): 60
Plant response rating, Kochia (kochia [9]; [16]): 0
Kochia plant response rating (0 to 100 scale) (kochia [9]; 125 g ai/ha): 0
Plant response rating, Barnyardgrass (barnyardgrass [10]): 0
Plant response rating, Sedge, Umbrella (sedge, umbrella): 80
Plant response rating, Rice (rice): 0
Plant response rating, Ryegrass, Italian (Italian ryegrass [11]; [15]): 30
Plant response rating, Ryegrass, Italian (Italian ryegrass [11]; [17]): 50
Plant response rating, Galium (galium; [15]): 100
Plant response rating, Galium (galium; [17]): 100
Plant response rating, Kochia (kochia [12]; [15]): 60
Plant response rating, Kochia (kochia [12]; [17]): 70
Plant response rating, Ducksalad (Heteranthera limosa): 80
Plant response rating, Barnyardgrass (barnyardgrass [13]; [15]): 20
Plant response rating, Barnyardgrass (barnyardgrass [13]; [17]): 40

CCCc1cnc(Oc2cccc(C#N)c2-n2cc(Br)cn2)nc1 [Compound 131]
Plant response rating, Ryegrass, Italian (Italian ryegrass [1]; [14]): 0
Ryegrass, Italian plant response rating (Italian ryegrass [1]; [18]): 0
Foxtail, Giant plant response rating (giant foxtail [2]; [14]): 0
Plant response rating, Foxtail, Giant (giant foxtail [2]; [18]): 0
Blackgrass plant response rating (blackgrass; [14]): 0
Plant response rating, Blackgrass (blackgrass; [18]): 0
Corn plant response rating (corn; [14]): 0
Plant response rating, Corn (corn; [18]): 0
Plant response rating, Barnyardgrass (barnyardgrass [3]; [14]): 0
Barnyardgrass plant response rating (barnyardgrass [3]; [18]): 0
Wheat plant response rating (wheat; [14]): 0
Plant response rating, Wheat (wheat; [18]): 0
Pigweed plant response rating (pigweed [4]; [14]): 0
Plant response rating, Pigweed (pigweed [4]; [18]): 0
Plant response rating, Ragweed (ragweed [5]; [14]): 0
Ragweed plant response rating (ragweed [5]; [18]): 0
Plant response rating, Foxtail, Giant (giant foxtail [6]; [14]): 0
Foxtail, Giant plant response rating (giant foxtail [6]; [18]): 0
Ragweed plant response rating (ragweed [7]; [14]): 0
Plant response rating, Ragweed (ragweed [7]; [18]): 0
Plant response rating, Pigweed (pigweed [8]; [14]): 0
Pigweed plant response rating (pigweed [8]; [18]): 0
Plant response rating, Kochia (kochia [9]; [14]): 0
Kochia plant response rating (kochia [9]; [18]): 0
Plant response rating, Barnyardgrass (barnyardgrass [10]): 0
Plant response rating, Sedge, Umbrella (sedge, umbrella): 0
Plant response rating, Rice (rice): 0
Ryegrass, Italian plant response rating (Italian ryegrass [11]; [14]): 0
Plant response rating, Ryegrass, Italian (Italian ryegrass [11]; [18]): 0
Galium plant response rating (galium; [14]): 0
Plant response rating, Galium (galium; [18]): 0
Kochia plant response rating (kochia [12]; [14]): 0
Plant response rating, Kochia (kochia [12]; [18]): 0
Plant response rating, Ducksalad (Heteranthera limosa): 0
Barnyardgrass plant response rating (barnyardgrass [13]; [14]): 0
Plant response rating, Barnyardgrass (barnyardgrass [13]; [18]): 0

Source: patent US9695155B2, “Herbicidal substituted pyrimidinyloxy benzene compounds” (E. I. DU PONT DE NEMOURS AND COMPANY, priority 2013, dated 2017)
